According to the NIST ThermoML archive (doi:10.1021/je400970y):
Numbers after ± are expanded uncertainties.

Conditions: Liquid, Closed cell (Static) method

With CC(F)(Cl)C(F)(F)F (stereo not given) [2-chloro-1,1,1,2-tetrafluoropropane] the “vapor or sublimation pressure” value (268.19 K) was 49.7 ± 3 kPa, the “vapor or sublimation pressure” value (270.19 K) was 54.4 ± 3 kPa and the “vapor or sublimation pressure” value (273.18 K) was 60.5 ± 3 kPa. For the same compound, the “vapor or sublimation pressure” value (275.18 K) was 66.4 ± 3 kPa, the “vapor or sublimation pressure” value (278.16 K) was 74.3 ± 3 kPa and the “vapor or sublimation pressure” value (281.15 K) was 83.9 ± 3 kPa. For the same compound, the “vapor or sublimation pressure” value (283.12 K) was 88.9 ± 3 kPa, the “vapor or sublimation pressure” value (286.13 K) was 100.5 ± 3 kPa and the “vapor or sublimation pressure” value (288.11 K) was 106.5 ± 3 kPa. For the same compound, the “vapor or sublimation pressure” value (290.12 K) was 116 ± 3 kPa, the “vapor or sublimation pressure” value (292.13 K) was 124.6 ± 3 kPa and the “vapor or sublimation pressure” value (295.09 K) was 138.2 ± 3 kPa. For the same compound, the “vapor or sublimation pressure” value (298.12 K) was 151.8 ± 3 kPa, the “vapor or sublimation pressure” value (300.09 K) was 163.5 ± 3 kPa and the “vapor or sublimation pressure” value (302.11 K) was 175.3 ± 3 kPa. For the same compound, the “vapor or sublimation pressure” value (304.25 K) was 185.9 ± 3 kPa, the “vapor or sublimation pressure” value (307.02 K) was 203.2 ± 3 kPa and the “vapor or sublimation pressure” value (308.9 K) was 215.2 ± 3 kPa. For the same compound, the “vapor or sublimation pressure” value (310.68 K) was 227.6 ± 3 kPa, the “vapor or sublimation pressure” value (313.35 K) was 247.9 ± 3 kPa and the “vapor or sublimation pressure” value (315.28 K) was 261.8 ± 3 kPa. The “vapor or sublimation pressure” value (318.34 K) was 286.5 ± 3.1 kPa, the “vapor or sublimation pressure” value (320.84 K) was 307.9 ± 3.1 kPa and the “vapor or sublimation pressure” value (324.02 K) was 334.9 ± 3.1 kPa. The “vapor or sublimation pressure” value (325.63 K) was 351.9 ± 3.1 kPa, the “vapor or sublimation pressure” value (328.81 K) was 382.6 ± 3.1 kPa and the “vapor or sublimation pressure” value (330.46 K) was 401.6 ± 3.1 kPa. The “vapor or sublimation pressure” value (333.63 K) was 435.9 ± 3.1 kPa, the “vapor or sublimation pressure” value (335.25 K) was 456.6 ± 3.1 kPa and the “vapor or sublimation pressure” value (338.51 K) was 495.5 ± 3.1 kPa. The “vapor or sublimation pressure” value (339.67 K) was 510.3 ± 3.1 kPa, the “vapor or sublimation pressure” value (341.68 K) was 536.4 ± 3.2 kPa and the “vapor or sublimation pressure” value (343.28 K) was 559.6 ± 3.2 kPa. The “vapor or sublimation pressure” value (345.27 K) was 588.1 ± 3.2 kPa, the “vapor or sublimation pressure” value (347.07 K) was 615.8 ± 3.2 kPa and the “vapor or sublimation pressure” value (349.07 K) was 645.9 ± 3.2 kPa.
In the case of C=C(F)C(F)(F)F [2,3,3,3-tetrafluoro-1-propene], the “vapor or sublimation pressure” value (248.17 K) is reported as 123.1 ± 3 kPa, the “vapor or sublimation pressure” value (251.18 K) is reported as 138.8 ± 3 kPa and the “vapor or sublimation pressure” value (254.21 K) is reported as 156.9 ± 3 kPa. For the same compound, the “vapor or sublimation pressure” value (258.2 K) was 184.3 ± 3 kPa, the “vapor or sublimation pressure” value (260.18 K) was 198.3 ± 3 kPa and the “vapor or sublimation pressure” value (262.18 K) was 213.8 ± 3 kPa. The “vapor or sublimation pressure” value (264.2 K) was 229.9 ± 3 kPa, the “vapor or sublimation pressure” value (266.25 K) was 248.1 ± 3 kPa and the “vapor or sublimation pressure” value (270.26 K) was 286 ± 3.1 kPa. For the same compound, the “vapor or sublimation pressure” value (271.16 K) was 295.3 ± 3.1 kPa, the “vapor or sublimation pressure” value (273.21 K) was 316.5 ± 3.1 kPa and the “vapor or sublimation pressure” value (275.22 K) was 338.2 ± 3.1 kPa. For the same compound, the “vapor or sublimation pressure” value (277.22 K) was 361.5 ± 3.1 kPa, the “vapor or sublimation pressure” value (279.14 K) was 385.1 ± 3.1 kPa and the “vapor or sublimation pressure” value (281.23 K) was 411.4 ± 3.1 kPa. The “vapor or sublimation pressure” value (285.18 K) was 466.2 ± 3.1 kPa, the “vapor or sublimation pressure” value (287.22 K) was 496.4 ± 3.1 kPa and the “vapor or sublimation pressure” value (289.22 K) was 526.7 ± 3.2 kPa. For the same compound, the “vapor or sublimation pressure” value (291.22 K) was 558.8 ± 3.2 kPa, the “vapor or sublimation pressure” value (293.25 K) was 593.4 ± 3.2 kPa and the “vapor or sublimation pressure” value (295.25 K) was 627.9 ± 3.2 kPa. For the same compound, the “vapor or sublimation pressure” value (297.55 K) was 672.2 ± 3.2 kPa, the “vapor or sublimation pressure” value (299.19 K) was 703 ± 3.3 kPa and the “vapor or sublimation pressure” value (301.32 K) was 746.2 ± 3.3 kPa. For the same compound, the “vapor or sublimation pressure” value (303.25 K) was 786.5 ± 3.3 kPa, the “vapor or sublimation pressure” value (305.11 K) was 825.8 ± 3.3 kPa and the “vapor or sublimation pressure” value (306.31 K) was 852.9 ± 3.4 kPa. For the same compound, the “vapor or sublimation pressure” value (309.51 K) was 927.9 ± 3.4 kPa, the “vapor or sublimation pressure” value (311.49 K) was 976.6 ± 3.5 kPa and the “vapor or sublimation pressure” value (313.43 K) was 1026.2 ± 3.5 kPa. For the same compound, the “vapor or sublimation pressure” value (315.55 K) was 1082.8 ± 3.5 kPa, the “vapor or sublimation pressure” value (317.23 K) was 1128.4 ± 3.6 kPa and the “vapor or sublimation pressure” value (319.14 K) was 1182.9 ± 3.6 kPa. The “vapor or sublimation pressure” value (321.02 K) was 1237.8 ± 3.7 kPa, the “vapor or sublimation pressure” value (323.79 K) was 1322.3 ± 3.8 kPa and the “vapor or sublimation pressure” value (325.56 K) was 1380 ± 3.8 kPa. The “vapor or sublimation pressure” value (326.82 K) was 1420.8 ± 3.9 kPa, the “vapor or sublimation pressure” value (328.86 K) was 1490.2 ± 3.9 kPa and the “vapor or sublimation pressure” value (330.87 K) was 1560.1 ± 4 kPa. The “vapor or sublimation pressure” value (332.97 K) was 1635.8 ± 4.1 kPa, the “vapor or sublimation pressure” value (334.99 K) was 1711.2 ± 4.2 kPa and the “vapor or sublimation pressure” value (336.99 K) was 1788.7 ± 4.2 kPa. For the same compound, the “vapor or sublimation pressure” value (338.97 K) was 1868.1 ± 4.3 kPa, the “vapor or sublimation pressure” value (341.06 K) was 1955.5 ± 4.4 kPa and the “vapor or sublimation pressure” value (343.04 K) was 2040.1 ± 4.5 kPa. The “vapor or sublimation pressure” value (345.05 K) was 2129.1 ± 4.6 kPa, the “vapor or sublimation pressure” value (347.06 K) was 2221.2 ± 4.7 kPa and the “vapor or sublimation pressure” value (349.05 K) was 2315.9 ± 4.9 kPa. The “vapor or sublimation pressure” value (351.03 K) was 2412.1 ± 5 kPa, the “vapor or sublimation pressure” value (353.08 K) was 2516.4 ± 5.1 kPa and the “vapor or sublimation pressure” value (355.03 K) was 2618.5 ± 5.2 kPa. The “vapor or sublimation pressure” value (357.23 K) was 2738.3 ± 5.4 kPa, the “vapor or sublimation pressure” value (359.34 K) was 2856.6 ± 5.5 kPa and the “vapor or sublimation pressure” value (361.05 K) was 2955.2 ± 5.7 kPa.
